Laboratory results from patent US4794115A, “Method of treating hyperlipemia” (Terumo Corporation, priority 1985, dated 1988).

Tested on: Wistar-King male rats
Assay: Serum total cholesterol and triglycerides in cholesterol/cholic acid/corn oil-loaded rats after 7 days oral administration
Format: in vivo
Details: once a day for 7 days, 4 hours after last administration, mean of 6 rats; for Serum lipid level, total cholesterol: control 210.0; for Serum lipid level, triglyceride: control 621.7
Description: Wistar-King male rats weighing 170 g are orally administered with 5% acacia gum suspension of the compound obtained in Example 1 or 2. Thirty minutes thereafter, a mixture of 10% cholesterol, 1% cholic acid and corn oil is orally administered at a dose of 10 ml/kg.
The above-described administration is made once a day for consecutive 7 days, and 4 hours after the last administration blood is drawn from the abdominal large artery of the rats under ether anesthesia. The blood is centrifuged at 1630×g at 4° C. for 10 min. to isolate serum. Measurements were made on serum levels of total cholesterol and triglycerides by means of serum lipid reagents, V-cholestase (Nissui, trade name for the total cholesterol) and V-Triglase (Nissui, trade name for the triglycerides). Results are shown in Table 1, in which mean values for a group of 6 animals are shown.

CC/C=C\C/C=C\C/C=C\CCCCCCCC(=O)NCCOC(=O)c1cccnc1 [Example 1, N-(9,12,15-octadecatrienoyl)-2-aminoethyl nicotinate]
Serum lipid level, total cholesterol (dose 1.2 mM/kg): 198.9 mg/dL
Serum lipid level, triglyceride (dose 1.2 mM/kg): 350.1 mg/dL
Serum lipid level, total cholesterol (dose 2.4 mM/kg): 146.6 mg/dL
Serum lipid level, triglyceride (dose 2.4 mM/kg): 258.4 mg/dL

CC/C=C\C/C=C\C/C=C\C/C=C\C/C=C\CCCC(=O)NCCOC(=O)c1cccnc1 [Example 2, N-(5,8,11,14,17-eicosapentaenoyl)-2-aminoethyl nicotinate]
Serum lipid level, total cholesterol (dose 1.2 mM/kg): 194.8 mg/dL
Serum lipid level, triglyceride (dose 1.2 mM/kg): 296.4 mg/dL
Serum lipid level, total cholesterol (dose 2.4 mM/kg): 130.4 mg/dL
Serum lipid level, triglyceride (dose 2.4 mM/kg): 202.8 mg/dL

O=C(O)c1cccnc1 [Nicotinic acid, reference compound]
Serum lipid level, total cholesterol (dose 2.4 mM/kg): 195.4 mg/dL
Serum lipid level, triglyceride (dose 2.4 mM/kg): 312.2 mg/dL
